# Reference: the supplement of paper PMC10307832
# What was measured:
# Assay in all cases: relative viability (nuclei count vs DMSO), 5 days (fraction); higher = more cells survive
# [1] = compound: OCc1c[nH]c2ccccc12 [Indole-3-carbinol] + Cc1cc(Nc2cc(N3CCN(C)CC3)nc(Sc3ccc(NC(=O)C4CC4)cc3)n2)n[nH]1 [Tozasertib] (partner 0.1 µM)
# In short: (§1)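 Each reported value is a median over duplicate plates. It expresses relative viability: treated-well nuclei count divided by vehicle-well nuclei count. Lung cancer cell lines in 1536-well plates were dosed by pin tool a day after seeding, alone with one drug or with a fixed anchor-drug dose plus five library-drug doses (not always all listed) in √10 steps, and nuclei were counted after 5 days.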
# [2] = compound: OCc1c[nH]c2ccccc12 [Indole-3-carbinol] + C[C@]1(O)C[C@@H](c2nc(-c3ccc4ccc(-c5ccccc5)nc4c3)c3c(N)nccn32)C1 [Linsitinib] (partner 1 µM)
# In short: as §1
# [3] = compound: OCc1c[nH]c2ccccc12 [Indole-3-carbinol] + O=C(c1cc(Cc2n[nH]c(=O)c3ccccc23)ccc1F)N1CCN(C(=O)C2CC2)CC1 [Olaparib] (partner 8 µM)
# In short: as §1
# [4] = compound: OCc1c[nH]c2ccccc12 [Indole-3-carbinol] + O=C(CCCCCCC(=O)Nc1ccccc1)NO [Vorinostat] (partner 1 µM)
# In short: as §1
# [5] = compound: OCc1c[nH]c2ccccc12 [Indole-3-carbinol] + Cc1nc(Nc2ncc(C(=O)Nc3c(C)cccc3Cl)s2)cc(N2CCN(CCO)CC2)n1 [Dasatinib] (partner 0.075 µM)
# In short: as §1
Cell Line,relative viability ([1]; first compound 0.253 µM),relative viability ([1]; first compound 0.8 µM),relative viability ([1]; first compound 2.53 µM),relative viability ([1]; first compound 8 µM),relative viability ([2]; first compound 0.253 µM),relative viability ([2]; first compound 0.8 µM),relative viability ([2]; first compound 2.53 µM),relative viability ([2]; first compound 8 µM),relative viability ([3]; first compound 0.253 µM),relative viability ([3]; first compound 0.8 µM),relative viability ([3]; first compound 2.53 µM),relative viability ([3]; first compound 8 µM),relative viability ([4]; first compound 0.253 µM),relative viability ([4]; first compound 0.8 µM),relative viability ([4]; first compound 2.53 µM),relative viability ([4]; first compound 8 µM),relative viability ([5]; first compound 0.253 µM),relative viability ([5]; first compound 0.8 µM),relative viability ([5]; first compound 2.53 µM),relative viability ([5]; first compound 8 µM)
PC-14,0.578,0.585,0.633,0.554,0.943,0.882,0.891,0.903,0.292,0.285,0.268,0.221,0.665,0.594,0.724,0.649,0.265,0.287,0.27,0.26
RERF-LC-KJ,0.441,0.518,0.546,0.509,0.961,0.943,0.868,0.825,0.878,0.93,0.957,0.801,0.687,0.622,0.656,0.726,0.815,0.842,0.846,0.762
SK-LU-1,0.303,0.356,0.367,0.302,1.05,1.19,1.09,1.02,0.478,0.438,0.569,0.589,0.795,0.865,0.757,0.839,0.194,0.211,0.178,0.208
SK-MES-1,0.904,1.04,0.932,0.907,1.12,1.13,1.08,1.07,0.758,0.888,0.632,0.615,1.16,1.08,1.08,0.986,0.472,0.343,0.387,0.417
SW 1573,0.187,0.233,0.135,0.176,0.77,0.898,0.932,0.754,0.499,0.526,0.546,0.479,0.764,0.731,1.05,0.76,0.553,0.653,0.666,0.407
UMC-11,0.196,0.202,0.187,0.204,0.937,0.983,0.963,0.967,0.549,0.359,0.499,0.944,0.332,0.377,0.432,0.398,0.482,0.451,0.514,0.45
